Assay results as given in PubChem BioAssay (NCI).
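Assay format: 96-well plates, 48-hour exposure. TGI denotes the concentration required for complete inhibition of growth.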

What was measured:
Assay in all cases: DTP human tumour cell line panel, 48 h
ACHN renal = test system: ACHN renal
SK-MEL-2 melanoma = test system: SK-MEL-2 melanoma
PC-3 prostate = test system: PC-3 prostate
MDA-N = test system: MDA-N
COLO 205 colon = test system: COLO 205 colon
SF-539 CNS = test system: SF-539 CNS
M14 melanoma = test system: M14 melanoma
CAKI-1 renal = test system: CAKI-1 renal
UACC-62 melanoma = test system: UACC-62 melanoma
MDA-MB-435 = test system: MDA-MB-435
MALME-3M melanoma = test system: MALME-3M melanoma
LOX IMVI melanoma = test system: LOX IMVI melanoma
HL-60(TB) leukemia = test system: HL-60(TB) leukemia
KM12 colon = test system: KM12 colon
HCT-15 colon = test system: HCT-15 colon
HT29 colon = test system: HT29 colon
SNB-19 CNS = test system: SNB-19 CNS

Structure (SMILES) | TGI (ACHN renal) [µM] | TGI (SK-MEL-2 melanoma) [µM] | TGI (PC-3 prostate) [µM] | TGI (MDA-N) [µM] | TGI (COLO 205 colon) [µM] | TGI (SF-539 CNS) [µM] | TGI (M14 melanoma) [µM] | TGI (CAKI-1 renal) [µM] | TGI (UACC-62 melanoma) [µM] | TGI (MDA-MB-435) [µM] | TGI (MALME-3M melanoma) [µM] | TGI (LOX IMVI melanoma) [µM] | TGI (HL-60(TB) leukemia) [µM] | TGI (KM12 colon) [µM] | TGI (HCT-15 colon) [µM] | TGI (HT29 colon) [µM] | TGI (SNB-19 CNS) [µM]
CC(C)=NOC(=O)CNC(=O)C(Cc1ccccc1)NC(=O)C(C)NC(=O)OC(C)(C)C (stereo not given) | > 100 | > 100 | > 100 | > 100 | > 100 | > 100 | > 100 | > 100 | > 100 | > 100 | > 100 | > 100 | > 100 | > 100 | > 100 | > 100 | > 100
Clc1ccc(-c2cc(-c3cc4cc(Br)ccc4nc3Cl)on2)cc1 | > 50 | 21.9 | > 50 | 30.6 | 15.4 | 17.5 | 37.9 | > 50 | > 50 | 32.1 | > 50 | 21.4 | 4.89 | > 50 | > 50 | > 50 | > 50
NC(=O)CSc1c2cc(O)ccc2nc2ccc(O)cc12 | > 10 | > 10 | > 10 | > 10 | > 10 | > 10 | > 10 | > 10 | > 10 | > 10 | > 10 | > 10 | > 10 | > 10 | > 10 | > 10 | > 10
CC(Oc1ccc(Oc2cnc3ccc(Cl)cc3n2)cc1)C(=O)O (stereo not given) | > 100 | > 100 | > 100 | > 100 | > 100 | > 100 | > 100 | > 100 | > 100 | > 100 | > 100 | > 100 | > 100 | > 100 | > 100 | > 100 | > 100
Cc1nc2ccc(S(=O)(=O)NS(=O)(=O)c3ccc(-c4ccccc4)cc3)cc2c(=O)n1NS(=O)(=O)c1ccc(-c2ccccc2)cc1 | > 100 | > 100 | > 100 | > 100 | > 100 | > 100 | > 100 | > 100 | > 100 | > 100 | > 100 | > 100 | > 100 | > 100 | > 100 | > 100 | > 100
O=[N+]([O-])c1ccc(C2ON=C(c3ccccc3)N2C23CC4CC(CC(C4)C2)C3)cc1 (stereo not given) | > 10 | > 10 | > 10 | > 10 | > 10 | > 10 | > 10 | > 10 | > 10 | > 10 | > 10 | > 10 | > 10 | > 10 | > 10 | > 10 | > 10
CCCCCCCCC/C=C1/CC(CO)(COC(=O)CC(C(C)C)C(C)C)OC1=O (stereo not given) | 18.6 | 29.7 | 21.3 | 18.3 | 4.64 | 24.2 | 20.4 | 17.4 | 25.6 | 19.6 | 14.3 | 24.7 | 15.4 | 23.1 | 29 | 29.9 | 23.9
Oc1[nH]c2ccccc2c1C1=Nc2ccccc2/C1=N\OCCOC1OCC(O)C(O)C1O (stereo not given) | > 100 | > 100 | > 100 | > 100 | > 100 | > 100 | > 100 | > 100 | > 100 | > 100 | > 100 | > 100 | > 100 | > 100 | > 100 | > 100 | > 100
COC(=O)C1Cc2c(OC)ccc(OC)c2C(O)C1C(=O)OC (stereo not given) | > 100 | > 100 | > 100 | > 100 | > 100 | > 100 | > 100 | > 100 | > 100 | > 100 | > 100 | > 100 | > 100 | > 100 |  | > 100 | > 100
COC(=O)c1c(CC(Cc2ccc3c(c2)CCCC3)C(=O)O)ccc2c1CCCC2 (stereo not given) | > 100 | 39.5 | > 100 | > 100 | 32.9 | 44.9 | > 100 | > 100 | 52.4 | > 100 | > 100 | 31.4 | 46.5 | 77.2 | 33.8 | > 100 | > 100
Cc1cccc2[nH]c3c(c(O)cc4[nH]c5cccc(C)c5c(=O)c43)c(=O)c12 | > 10 | > 10 | > 10 | > 10 | > 10 | > 10 | > 10 | > 10 | > 10 | > 10 | > 10 | > 10 | > 10 | > 10 | > 10 | > 10 | > 10
C[C@H]1C2Cc3cc(O)ccc3[C@@]1(C)CCN2CCc1ccc(N)cc1 | > 100 | > 100 | 34.8 | 38.4 | > 100 | 31.3 | 32.4 | > 100 | > 100 | 32.5 | 34.8 | 28.2 | > 100 | 34.3 | 33.3 | 31.9 | > 100
C1CCCCC2(CCCCCCCCC3(CCC1)SCCS3)SCCS2 | > 100 | > 100 | > 100 | > 100 | > 100 | > 100 | > 100 | > 100 | > 100 | > 100 | > 100 | > 100 | > 100 | > 100 | > 100 | > 100 | > 100
